From patent publication US8580802B2, “Pyrrolo[2,3-D]pyrimidines as inhibitors of Janus kinases” (Vertex Pharmaceuticals Incorporated, priority 2005, dated 2013)

Columns and labels:
[1] = target: JAK2 (Homo sapiens, UniProt O60674); experiment: JAK2 Inhibition Assay; type: biochemical; conditions: JAK-2 enzyme, 15 μM poly(Glu)4Tyr, 12 μM ATP
Description: (§1) Compounds were screened for their ability to inhibit JAK3 using the assay shown below. Reactions were carried out in a kinase buffer containing 100 mM HEPES (pH 7.4), 1 mM DTT, 10 mM MgCl2, 25 mM NaCl, and 0.01% BSA. Substrate concentrations in the assay were 5 μM ATP (200 uCi/μmole ATP) and 1 μM poly(Glu)4Tyr. Reactions were carried out 25° C. and 1 nM JAK3.
(§2) To each well of a 96 well polycarbonate plate was added 1.5 μl of a candidate JAK3 inhibitor along with 50 μl of kinase buffer containing 2 μM poly(Glu)4Tyr and 10 μM ATP. This was then mixed and 50 μl of kinase buffer containing 2 nM JAK3 enzyme was added to start the reaction. After 20 minutes at room temperature (25° C.), the reaction was stopped with 50 μl of 20% trichloroacetic acid (TCA) that also contained 0.4 mM ATP. The entire contents of each well were then transferred to a 96 well glass fiber filter plate using a TomTek Cell Harvester. After washing, 60 μl of scintillation fluid was added and ^33P incorporation detected on a Perkin Elmer TopCount.
The assays were as described above in Example 36 except that JAK-2 enzyme was used, the final poly(Glu)4Tyr concentration was 15 μM, and final ATP concentration was 12 μM.

[2] = target: T1, JAK3 (Homo sapiens, UniProt P52333); experiment: JAK3 Inhibition Assay; type: biochemical; conditions: 1 nM JAK3, 1 μM poly(Glu)4Tyr, 5 μM ATP, 25° C.; read-out: enzyme inhibition data (Ki) JAK3
T1 sequence (P52333 1-1124): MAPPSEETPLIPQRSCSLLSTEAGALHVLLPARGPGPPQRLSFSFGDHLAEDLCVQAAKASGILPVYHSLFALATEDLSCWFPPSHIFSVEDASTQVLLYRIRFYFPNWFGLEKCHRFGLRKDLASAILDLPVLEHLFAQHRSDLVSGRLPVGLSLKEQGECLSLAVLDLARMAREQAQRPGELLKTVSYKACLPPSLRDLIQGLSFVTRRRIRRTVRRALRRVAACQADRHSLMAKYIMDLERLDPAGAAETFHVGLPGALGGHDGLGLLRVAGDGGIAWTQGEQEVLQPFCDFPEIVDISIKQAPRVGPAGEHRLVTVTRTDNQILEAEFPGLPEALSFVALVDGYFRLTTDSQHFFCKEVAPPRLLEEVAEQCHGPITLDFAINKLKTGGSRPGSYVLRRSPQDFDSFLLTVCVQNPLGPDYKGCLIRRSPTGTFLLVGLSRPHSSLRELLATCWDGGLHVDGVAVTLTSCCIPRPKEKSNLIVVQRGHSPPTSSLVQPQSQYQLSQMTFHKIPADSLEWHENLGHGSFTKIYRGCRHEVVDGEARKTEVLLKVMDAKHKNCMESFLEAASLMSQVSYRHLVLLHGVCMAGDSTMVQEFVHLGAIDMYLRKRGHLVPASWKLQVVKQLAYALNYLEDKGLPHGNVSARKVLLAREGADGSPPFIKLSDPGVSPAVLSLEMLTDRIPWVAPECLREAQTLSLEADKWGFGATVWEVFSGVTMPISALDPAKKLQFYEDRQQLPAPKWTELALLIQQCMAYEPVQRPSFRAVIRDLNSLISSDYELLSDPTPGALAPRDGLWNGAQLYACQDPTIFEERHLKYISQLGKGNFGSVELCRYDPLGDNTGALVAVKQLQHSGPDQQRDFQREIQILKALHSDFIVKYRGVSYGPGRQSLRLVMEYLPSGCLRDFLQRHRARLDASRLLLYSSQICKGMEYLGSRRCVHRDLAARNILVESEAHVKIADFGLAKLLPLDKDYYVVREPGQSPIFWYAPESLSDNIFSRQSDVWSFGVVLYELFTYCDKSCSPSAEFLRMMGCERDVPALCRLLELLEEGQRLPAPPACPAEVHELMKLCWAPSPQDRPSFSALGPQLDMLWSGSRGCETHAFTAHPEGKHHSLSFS
Description: as §1, §2

JAK2, sequence (O60674 whole entry): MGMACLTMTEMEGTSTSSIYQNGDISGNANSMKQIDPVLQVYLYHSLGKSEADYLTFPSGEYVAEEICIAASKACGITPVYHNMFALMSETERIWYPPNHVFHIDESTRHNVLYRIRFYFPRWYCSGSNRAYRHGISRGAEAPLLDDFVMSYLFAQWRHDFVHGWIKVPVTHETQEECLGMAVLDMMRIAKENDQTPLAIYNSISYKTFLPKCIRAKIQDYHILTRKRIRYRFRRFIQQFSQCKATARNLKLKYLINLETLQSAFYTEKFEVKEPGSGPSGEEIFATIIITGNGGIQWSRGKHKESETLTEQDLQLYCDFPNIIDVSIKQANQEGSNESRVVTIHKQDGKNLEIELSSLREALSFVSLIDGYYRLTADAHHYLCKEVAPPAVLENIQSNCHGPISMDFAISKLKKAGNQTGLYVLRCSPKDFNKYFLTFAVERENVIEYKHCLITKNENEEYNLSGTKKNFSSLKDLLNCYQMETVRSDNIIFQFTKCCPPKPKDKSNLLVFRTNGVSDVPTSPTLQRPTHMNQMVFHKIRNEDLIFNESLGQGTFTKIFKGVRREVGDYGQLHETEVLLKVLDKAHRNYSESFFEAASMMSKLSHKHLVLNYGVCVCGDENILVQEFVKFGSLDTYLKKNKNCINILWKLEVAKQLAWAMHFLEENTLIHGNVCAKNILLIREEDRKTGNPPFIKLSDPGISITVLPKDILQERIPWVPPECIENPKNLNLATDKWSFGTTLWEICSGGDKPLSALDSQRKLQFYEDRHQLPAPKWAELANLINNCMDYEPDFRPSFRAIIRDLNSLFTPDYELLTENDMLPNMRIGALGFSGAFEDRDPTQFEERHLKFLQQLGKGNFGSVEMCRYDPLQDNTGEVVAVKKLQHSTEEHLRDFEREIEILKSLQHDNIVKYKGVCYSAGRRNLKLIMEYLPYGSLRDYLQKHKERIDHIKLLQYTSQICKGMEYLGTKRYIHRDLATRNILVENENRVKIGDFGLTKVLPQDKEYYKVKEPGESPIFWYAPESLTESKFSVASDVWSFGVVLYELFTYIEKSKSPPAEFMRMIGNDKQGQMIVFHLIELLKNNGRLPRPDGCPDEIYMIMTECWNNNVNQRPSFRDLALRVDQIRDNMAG

Structure (SMILES) | Ki [1] | Ki [2]
C[C@H](Nc1cc(N2CCCC2)nc(-c2c[nH]c3ncncc23)n1)C(=O)NCC(F)(F)F [Compound 32, (S)-2-(6-(pyrrolidin-1-yl)-2-(7H-pyrrolo[2,3-d]pyrimidin-5-yl)pyrimidin-4-ylamino)-N-(2,2,2-trifluoroethyl)propanamide] | > 5 µM | > 5 µM
C[C@H](Nc1nc(-c2c[nH]c3ncncc23)nc(N2CCCC2)n1)C(=O)NCC(F)(F)F [Compound 33, (S)-2-(4-(pyrrolidin-1-yl)-6-(7H-pyrrolo[2,3-d]pyrimidin-5-yl)-1,3,5-triazin-2-ylamino)-N-(2,2,2-trifluoroethyl)propanamide] | > 5 µM | > 5 µM
C[C@H](Nc1nc(-c2c[nH]c3ncncc23)nc2ccccc12)C(=O)NCC(F)(F)F [Compound 34] | 0.5 to 5 µM | < 0.5 µM
C[C@H](Nc1nc(-c2c[nH]c3ncncc23)cc(N2CCOCC2)n1)C(=O)NCC(F)(F)F [Compound 35] | > 5 µM | 0.5 to 5 µM
C[C@H](Nc1cc(N2CCOCC2)nc(-c2c[nH]c3ncncc23)n1)C(=O)NCC(F)(F)F [Compound 36, (S)-2-(6-morpholino-2-(7H-pyrrolo[2,3-d]pyrimidin-5-yl)pyrimidin-4-ylamino)-N-(2,2,2-trifluoroethyl)propanamide] | > 5 µM | > 5 µM
C[C@H](Nc1nc(-c2c[nH]c3ncncc23)nc(N2CCOCC2)n1)C(=O)NCC(F)(F)F [Compound 37, (S)-2-(4-morpholino-6-(7H-pyrrolo[2,3-d]pyrimidin-5-yl)-1,3,5-triazin-2-ylamino)-N-(2,2,2-trifluoroethyl)propanamide] | > 5 µM | > 5 µM
C[C@@H](Nc1nc(-c2c[nH]c3ncncc23)nc2ccccc12)C(=O)NCC(F)(F)F [Compound 38] | < 0.5 µM | < 0.5 µM
C[C@@H](Nc1ccnc(-c2c[nH]c3ncncc23)n1)C(=O)NCC(F)(F)F [Compound 39, (R)-2-(2-(7H-pyrrolo[2,3-d]pyrimidin-5-yl)pyrimidin-4-ylamino)-N-(2,2,2-trifluoroethyl)propanamide] | < 0.5 µM | < 0.5 µM
C[C@@H](Nc1nc(-c2c[nH]c3ncncc23)ncc1F)C(=O)NCC(F)(F)F [Compound 40, (R)-2-(5-fluoro-2-(7H-pyrrolo[2,3-d]pyrimidin-5-yl)pyrimidin-4-ylamino)-N-(2,2,2-trifluoroethyl)propanamide] | < 0.5 µM | < 0.5 µM
CC[C@H](Nc1nc(-c2c[nH]c3ncncc23)ncc1F)C(=O)NCC(F)(F)F [Compound 41, (S)-2-(5-fluoro-2-(7H-pyrrolo[2,3-d]pyrimidin-5-yl)pyrimidin-4-ylamino)-N-(2,2,2-trifluoroethyl)butanamide] | 0.5 to 5 µM | < 0.5 µM
COC[C@H](Nc1nc(-c2c[nH]c3ncncc23)ncc1F)C(=O)NCC(F)(F)F [Compound 42, (S)-2-(5-fluoro-2-(7H-pyrrolo[2,3-d]pyrimidin-5-yl)pyrimidin-4-ylamino)-N-(2,2,2-trifluoroethyl)-3-methoxypropanamide] | 0.5 to 5 µM | < 0.5 µM
CNC(=O)C(CC(F)(F)F)Nc1nc(-c2c[nH]c3ncncc23)ncc1F (stereo not shown) [Compound 43, 2-(5-fluoro-2-(7H-pyrrolo[2,3-d]pyrimidin-5-yl)pyrimidin-4-ylamino)-4,4,4-trifluoro-N-methylbutanamide] | 0.5 to 5 µM | 0.5 to 5 µM
CCNC(=O)C(CC(F)(F)F)Nc1nc(-c2c[nH]c3ncncc23)ncc1F (stereo not shown) [Compound 44, 2-(5-fluoro-2-(7H-pyrrolo[2,3-d]pyrimidin-5-yl)pyrimidin-4-ylamino)-N-ethyl-4,4,4-trifluorobutanamide] | 0.5 to 5 µM | 0.5 to 5 µM
O=C(NCC(F)(F)F)C(CC(F)(F)F)Nc1nc(-c2c[nH]c3ncncc23)ncc1F (stereo not shown) [Compound 45, 2-(5-fluoro-2-(7H-pyrrolo[2,3-d]pyrimidin-5-yl)pyrimidin-4-ylamino)-4,4,4-trifluoro-N-(2,2,2-trifluoroethyl)butanamide] | < 0.5 µM | < 0.5 µM
C[C@H](Nc1nc(-c2c[nH]c3ncncc23)ccc1[N+](=O)[O-])C(=O)NCC(F)(F)F [Compound 46] | 0.5 to 5 µM | < 0.5 µM
COC[C@H](Nc1nc(-c2c[nH]c3ncncc23)nc2ccccc12)C(=O)NCC(F)(F)F [Compound 47] | > 5 µM | 0.5 to 5 µM
COC[C@H](Nc1ccnc(-c2c[nH]c3ncncc23)n1)C(=O)NCC(F)(F)F [Compound 48, (S)-2-(2-(7H-pyrrolo[2,3-d]pyrimidin-5-yl)pyrimidin-4-ylamino)-N-(2,2,2-trifluoroethyl)-3-methoxypropanamide] | > 5 µM | 0.5 to 5 µM
Nc1nc(-c2c[nH]c3ncncc23)ncc1F [Compound 49] | > 5 µM | 0.5 to 5 µM
O=C(NCC(F)(F)F)[C@H](CO)Nc1nc(-c2c[nH]c3ncncc23)ncc1F [Compound 50] | 0.5 to 5 µM | < 0.5 µM
O=C(NCC(F)(F)F)[C@H](CO)Nc1ccnc(-c2c[nH]c3ncncc23)n1 [Compound 51] | > 5 µM | > 5 µM

The next lines start with the values.

Ki [1] | Ki [2] | Structure (SMILES)
0.5 to 5 µM | 0.5 to 5 µM | O=C(NCC(F)(F)F)[C@@H]1C[C@H](F)CN1c1nc(-c2c[nH]c3ncncc23)ncc1F [Compound 52]
> 5 µM | 0.5 to 5 µM | O=C(NCC(F)(F)F)[C@@H]1C[C@@H](F)CN1c1nc(-c2c[nH]c3ncncc23)ncc1F [Compound 53]
< 0.5 µM | < 0.5 µM | O=C(NCC(F)(F)F)[C@H]1CCCCN1c1cnc(-c2c[nH]c3ncncc23)nc1 [Compound 54]
0.5 to 5 µM | 0.5 to 5 µM | O=C(NCC(F)(F)F)[C@@H]1CCN1c1cnc(-c2c[nH]c3ncncc23)nc1 [Compound 55]
< 0.5 µM | < 0.5 µM | CC(C)(Nc1nc(-c2c[nH]c3ncncc23)ncc1F)C(=O)NCC(F)(F)F [Compound 56, 2-(5-fluoro-2-(7H-pyrrolo[2,3-d]pyrimidin-5-yl)pyrimidin-4-ylamino)-N-(2,2,2-trifluoroethyl)-2-methylpropanamide]
< 0.5 µM | < 0.5 µM | O=C(NCC(F)(F)F)C1(Nc2nc(-c3c[nH]c4ncncc34)ncc2F)CC1 [Compound 57]
< 0.5 µM | < 0.5 µM | C[C@@H](Nc1nc(-c2c[nH]c3ncncc23)ncc1F)c1ccc(F)cc1 [Compound 58]
< 0.5 µM | < 0.5 µM | C[C@H](Nc1nc(-c2c[nH]c3ncncc23)ncc1F)c1ccc(F)cc1 [Compound 59]
0.5 to 5 µM | < 0.5 µM | O=C(NCC(F)(F)F)C1COCCN1c1cnc(-c2c[nH]c3ncncc23)nc1 (stereo not shown) [Compound 60]
0.5 to 5 µM | < 0.5 µM | O=C(NCC(F)(F)F)[C@@H]1CCCCN1c1ccnc(-c2c[nH]c3ncncc23)n1 [Compound 61]
< 0.5 µM | < 0.5 µM | O=C(NCC(F)(F)F)C1(Nc2nc(-c3c[nH]c4ncncc34)ncc2F)CCCCC1 [Compound 62]
< 0.5 µM | < 0.5 µM | CC(C)(Nc1ccnc(-c2c[nH]c3ncncc23)n1)C(=O)NCC(F)(F)F [Compound 63]
< 0.5 µM | < 0.5 µM | O=C(NCC(F)(F)F)C1(Nc2ccnc(-c3c[nH]c4ncncc34)n2)CCC1 [Compound 64]
< 0.5 µM | < 0.5 µM | CC(C)[C@@](C)(Nc1nc(-c2c[nH]c3ncncc23)ncc1F)C(=O)NCC(F)(F)F [Compound 65]
< 0.5 µM | < 0.5 µM | CC(C)C(C(=O)NCC(F)(F)F)N(C)c1nc(-c2c[nH]c3ncncc23)ncc1F (stereo not shown) [Compound 66]
